Data taken from US20140249084A1, “PTH-CONTAINING THERAPEUTIC/PROPHYLACTIC AGENT FOR OSTEOPOROSIS, CHARACTERIZED IN THAT PTH IS ADMINISTERED ONCE A WEEK IN A UNIT DOSE OF 100 TO 200 UNITS” (ASAHI KASEI PHARMA CORPORATION, priority 2009, published 2014).

How the values were obtained:
Type in all cases: in vivo, human
[1] = tested on: patients diagnosed with primary osteoporosis; assay: New vertebral fractures by x-ray (method of Genant), Working Example 1; conditions: for Incidence (%) / No. of fractures / No. with fractures: new vertebral fractures every 26 weeks; for No. of vertebral fractures / No. with fractures (persons): new vertebral fractures
Protocol: Both the 5 and 100 unit groups were administered two tablets of a calcium agent (containing 500 mg of precipitated calcium carbonate [200 mg as calcium] per tablet) once a day.
The osteoporosis patients were classified as condition shown in Table 1 based on the bone fracture risk factors present, as in Non-patent Reference 13, and compared. High-risk patients were defined as having all three factors involving age, prevalent vertebral fractures, and bone density or bone atrophy; low-risk patients were defined as other than the above.

[2] = tested on: high-risk patients diagnosed with primary osteoporosis; assay: Vertebral fractures (new+worsening), Kaplan-Meier estimation, Working Example 2; conditions: after 72 weeks; FAS; 200 units once a week
From the text: (§1) The incidence of bone fractures was checked by frontal and lateral x-rays of the fourth thoracic to the fourth lumbar spine taken at the start and every 24 weeks thereafter.
The incidence of vertebral fractures (new±worsening) after 72 weeks by Kaplan-Meier estimation in the FAS of the fracture study was 3.5% in the PTH200 group and 16.3% in the P group. The incidence with 200 units of this drug was lower than in the placebo group (log rank test, p<0.0001). […] When the six-month vertebral fracture (new+worsening) incidence was compared between groups, the incidence of the PTH200 group was lower than that of the P group in all divisions consisting of within 24 weeks, 24 to 48 weeks, and 48 to 72 weeks.

[3] = tested on: high-risk patients diagnosed with primary osteoporosis; assay: Worsening vertebral fractures, Working Example 2; conditions: FAS, 200 units once a week
From the text: The vertebral fractures in the present invention also include both new fractures and worsening fractures. […] New and worsening [fractures] can be classified by the grade increase pattern according to the criteria of Genant. Concretely speaking, a fracture is diagnosed as a new fracture when a change is found from grade 0 to grade 1, 2, or 3. It can be regarded as a worsening fracture when a change is found from grade 1 to grade 2 or 3 or from grade 2 to grade 3. The vertebral height was measured according to the method of Inoue et al. (Non-patent reference 35) and the method of Hayashi et al. (Non-patent Reference 36) to accurately assess the changes in grade.
as §1

[4] = tested on: high-risk patients diagnosed with primary osteoporosis; assay: Lumbar spine bone density by DXA, Working Example 2; conditions: 200 units once a week; for Change in bone density (%): patients taking glucocorticoid
Protocol: For the bone density of the lumbar spine, the density of the second to fourth lumbar spine was measured at the start and every 24 weeks thereafter using dual-energy x-ray absorptiometry (DXA).

[5] = tested on: high-risk patients diagnosed with primary osteoporosis; assay: CT geometry of the femur (multislice CT), Working Example 2; conditions: 200 units once a week
Protocol: For the CT geometry, the proximal part of the femur was measured at the start and after 48 and 72 weeks using multislice CT scan.
The effects of the test drug on three parts of the femur (neck of the femur, trochanter, and shaft of the femur) were studied using ordinary CT scans.

[6] = high-risk patients, 5 units once a week, After 26 W
[7] = high-risk patients, 5 units once a week, After 52 W
[8] = high-risk patients, 5 units once a week, After 78 W
[9] = high-risk patients, 5 units once a week, After 104 W
[10] = high-risk patients, 5 units once a week, After 130 W
[11] = high-risk patients, 100 units once a week, After 26 W
[12] = high-risk patients, 100 units once a week, After 52 W
[13] = high-risk patients, 100 units once a week, After 78 W
[14] = high-risk patients, 100 units once a week, After 104 W
[15] = high-risk patients, 100 units once a week, After 130 W
[16] = low-risk patients, 5 units once a week, After 26 W
[17] = low-risk patients, 5 units once a week, After 52 W
[18] = low-risk patients, 5 units once a week, After 78 W
[19] = low-risk patients, 5 units once a week, After 104 W
[20] = low-risk patients, 5 units once a week, After 130 W
[21] = low-risk patients, 100 units once a week, After 26 W
[22] = low-risk patients, 100 units once a week, After 52 W
[23] = low-risk patients, 100 units once a week, After 78 W
[24] = low-risk patients, 100 units once a week, After 104 W
[25] = low-risk patients, 100 units once a week, After 130 W
[26] = high-risk patients, 5 units once a week
[27] = high-risk patients, 100 units once a week
[28] = low-risk patients, 5 units once a week
[29] = low-risk patients, 100 units once a week

teriparatide acetate
Incidence (%) [1, 6]: 9.5%
No. of fractures [1, 6]: 8
No. with fractures [1, 6]: 6
Incidence (%) [1, 7]: 11.1%
No. of fractures [1, 7]: 9
No. with fractures [1, 7]: 7
Incidence (%) [1, 8]: 7.0%
No. of fractures [1, 8]: 4
No. with fractures [1, 8]: 4
Incidence (%) [1, 9]: 2.9%
No. of fractures [1, 9]: 1
No. with fractures [1, 9]: 1
No. of fractures [1, 10]: 0
No. with fractures [1, 10]: 0
Incidence (%) [1, 11]: 2.0%
No. of fractures [1, 11]: 1
No. with fractures [1, 11]: 1
Incidence (%) [1, 12]: 2.0%
No. of fractures [1, 12]: 1
No. with fractures [1, 12]: 1
Incidence (%) [1, 13]: 2.2%
No. of fractures [1, 13]: 1
No. with fractures [1, 13]: 1
No. of fractures [1, 14]: 0
No. with fractures [1, 14]: 0
No. of fractures [1, 15]: 0
No. with fractures [1, 15]: 0
No. of fractures [1, 16]: 0
No. with fractures [1, 16]: 0
Incidence (%) [1, 17]: 4.8%
No. of fractures [1, 17]: 1
No. with fractures [1, 17]: 1
No. of fractures [1, 18]: 0
No. with fractures [1, 18]: 0
No. of fractures [1, 19]: 0
No. with fractures [1, 19]: 0
No. of fractures [1, 20]: 0
No. with fractures [1, 20]: 0
Incidence (%) [1, 21]: 8.3%
No. of fractures [1, 21]: 2
No. with fractures [1, 21]: 1
No. of fractures [1, 22]: 0
No. with fractures [1, 22]: 0
No. of fractures [1, 23]: 0
No. with fractures [1, 23]: 0
No. of fractures [1, 24]: 0
No. with fractures [1, 24]: 0
No. of fractures [1, 25]: 0
No. with fractures [1, 25]: 0
No. of vertebral fractures [1, 26]: 22
No. with fractures (persons) [1, 26]: 13 persons
No. of vertebral fractures [1, 27]: 3
No. with fractures (persons) [1, 27]: 3 persons
No. of vertebral fractures [1, 28]: 1
No. with fractures (persons) [1, 28]: 1 persons
No. of vertebral fractures [1, 29]: 2
No. with fractures (persons) [1, 29]: 1 persons
Incidence of vertebral fractures (new±worsening) by Kaplan-Meier estimation [2]: 3.5%
Difference between test drug group and control group after 72 W (%) ([3]; incidence of worsening fractures): 1.8%
No. with fractures ([3]; worsening fractures): 1
Percentage change in bone density (%) ([4]; 24 W, history of Alfacalcidol): 3.11%
Percentage change in bone density (%) ([4]; 24 W, history of Calcitriol): 3.50%
Percentage change in bone density (%) ([4]; 24 W, history of Calcium L-aspartate): 3.78%
Percentage change in bone density (%) ([4]; 24 W, history of Calcium lactate): 1.96%
Percentage change in bone density (%) ([4]; 24 W, history of Elcatonin): 3.95%
Percentage change in bone density (%) ([4]; 24 W, history of Menatetrenone): 2.70%
Percentage change in bone density (%) ([4]; 24 W, history of Raloxifene hydrochloride): 1.77%
Change in bone density (%) ([4]; 24 W): 3.50%
Percentage change in bone density (%) ([4]; 48 W, history of Alfacalcidol): 5.47%
Percentage change in bone density (%) ([4]; 48 W, history of Calcitriol): 4.40%
Percentage change in bone density (%) ([4]; 48 W, history of Calcium L-aspartate): 6.16%
Percentage change in bone density (%) ([4]; 48 W, history of Calcium lactate): 3.45%
Percentage change in bone density (%) ([4]; 48 W, history of Elcatonin): 3.59%
Percentage change in bone density (%) ([4]; 48 W, history of Menatetrenone): 3.04%
Percentage change in bone density (%) ([4]; 48 W, history of Raloxifene hydrochloride): 4.96%
Change in bone density (%) ([4]; 48 W): 5.97%
Percentage change in bone density (%) ([4]; 72 W, history of Alfacalcidol): 6.47%
Percentage change in bone density (%) ([4]; 72 W, history of Calcitriol): 6.38%
Percentage change in bone density (%) ([4]; 72 W, history of Calcium L-aspartate): 5.85%
Percentage change in bone density (%) ([4]; 72 W, history of Calcium lactate): 4.93%
Percentage change in bone density (%) ([4]; 72 W, history of Elcatonin): 5.36%
Percentage change in bone density (%) ([4]; 72 W, history of Menatetrenone): 4.32%
Percentage change in bone density (%) ([4]; 72 W, history of Raloxifene hydrochloride): 4.59%
Change in bone density (%) ([4]; 72 W): 6.82%
Volume bone mineral density (cortical bone) [vBMD cortical], change from baseline after 48 weeks (%) ([5]; Neck of femur): −0.77%
Volume bone mineral density (total) [vBMD total], change from baseline after 48 weeks (%) ([5]; Neck of femur): 0.92%
Volume bone mineral density (total) [vBMD total], change from baseline after 72 weeks (%) ([5]; Neck of femur): 0.15%
Volume bone mineral density (cortical bone) [vBMD cortical], change from baseline after 48 weeks (%) ([5]; Shaft of femur): 0.59%
Volume bone mineral density (cortical bone) [vBMD cortical], change from baseline after 72 weeks (%) ([5]; Shaft of femur): 0.18%
Maximum section modulus (SM (Z min)), change from baseline after 72 weeks (%) ([5]; Trochanter): 3.20%
Volume bone mineral density (cortical bone) [vBMD cortical], change from baseline after 48 weeks (%) ([5]; Trochanter): −0.49%
Volume bone mineral density (total) [vBMD total], change from baseline after 72 weeks (%) ([5]; Trochanter): 0.95%
